The text below walks through data of patent US6461997B1, “Triazole sulfones having herbicidal activity” (Monsanto Technology LLC, priority 1999, dated 2002).

The subject of one test is LOLMG (annual ryegrass). The experiment in a line: Pre-plant incorporated (PPI) herbicidal activity, cool season. Format: in vivo, Lolium multiflorum. Particulars: for Percent inhibition LOLMG: weed, PPI application. Here is the method: (§1) In another set of tests, the pre-plant incorporated (PPI) activity of compounds of this invention was evaluated on the same species as for the pre-emergence tests described above. In the PPI tests the following procedure, designed to simulate PPI application, was used.
(§2) A pre-prepared topsoil mixture (described above) was placed in a pot and compacted to a depth of 1.0 to 1.25 cm from the top of the pot. Seeds of each of several monocotyledonous and dicotyledonous annual plant species were placed on top of the soil. A sufficient quantity of soil to cover the seeds and level fill the pot was weighed into an open container. A known amount of the test compound was dissolved or suspended in an organic solvent and applied by spraying to this cover soil. The cover soil was thoroughly mixed to distribute the test compound throughout the cover soil, and was then applied as a cover layer over the seeds. Untreated soil was used as a cover layer for control pots. After treatment the plants were placed in a greenhouse where they received 0.64 cm of overhead irrigation. All subsequent watering consisted of a light overhead mist and/or subirrigation as needed for germination and growth. Tables 9 and 10 below relate to warm season plant species which were placed after pre-emergence treatment in a greenhouse with a 30/21° C. day/night temperature regime. Tables 11 and 12 below relates to cool season plant species placed after pre-emergence treatment in a greenhouse or growth chamber with an 18/13° C. day/night temperature regime. Only the compounds of Examples 1, 6, 8, 11, 13 and 15-20 were included in PPI tests.
(§3) Approximately 14 days after planting and treating, the plants were observed and herbicidal efficacy recorded as percent inhibition by comparison with untreated plants.

Another test has as its system DATST (jimsonweed). The experiment in a line: Pre-plant incorporated (PPI) herbicidal activity, warm season. The format is in vivo, Datura stramonium. Particulars: for Percent inhibition DATST: PPI application. Here is the method:
as §1, §2, §3

The subject of test [1] is GALAP (catchweed bedstraw). The experiment in a line: Pre-plant incorporated (PPI) herbicidal activity, cool season. Format: in vivo, Galium aparine. Particulars: for Percent inhibition GALAP: weed, PPI application. Here is the method:
as §1, §2, §3

A further test relates to barley (HORVX). The experiment in a line: Selectivity test, PPI, cool season crop. The format is in vivo, Hordeunm vulgare. Particulars: PPI application. Here is the method: as §2, §3
Additional pre-emergence and PPI tests were conducted by the procedures described above, on warm and cool season weed species in the presence of crop species, to assess herbicidal selectivity. Crop species included in warm season tests were corn (Zea mays, ZEAMX), rice (Oryza sativa, ORYSA) and soybean (Glycine max, GLYMX). Crop species included in cool season tests were wheat (Triticum aestivum, TRZAW), barley (Hordeunm vulgare, HORVX) and oilseed rape (Brassica napus, BRSNS).
Tables 15 and 16 relate to pre-emergence and PPI tests respectively on warm season species. Table 17 relates to pre-emergence tests on cool season species.

For test [2], the system named is AEGCY (jointed goatgrass). The experiment in a line: Pre-plant incorporated (PPI) herbicidal activity, cool season. Particulars: for Percent inhibition AEGCY: weed, PPI application. The format is in vivo, Aegilops cylindrica. The procedure:
as §1, §2, §3

[3] abbreviates: pre-plant incorporated, lowest tested rate with 80% or greater inhibition, about 14 days.

On to `CCN(CC)C(=O)n1cnc(S(=O)(=O)C(F)(F)F)n1` [Example 2], for which the “Percent inhibition LOLMG” value with LOLMG (annual ryegrass) (30 g/ha) is reported as 40%; with LOLMG (annual ryegrass) (100 g/ha), 99%; in the test on LOLMG (annual ryegrass) (300 g/ha), 100%; in the test with LOLMG (annual ryegrass) (900 g/ha), 100%. In addition, the “Percent inhibition DATST” value in the test on DATST (jimsonweed) (30 g/ha) is 0%; in the test with DATST (jimsonweed) (100 g/ha) it was 10%; with DATST (jimsonweed) (300 g/ha), 80%; with DATST (jimsonweed) (900 g/ha), 70%. The “Percent inhibition GALAP” value is on record as 60% in test [1] (30 g/ha), 100% in test [1] (100 g/ha), 100% in test [1] (300 g/ha) and 100% in test [1] (900 g/ha). Further, the “Percent inhibition HORVX” value is 0% with barley (HORVX) (30 g/ha), 30% in the test with barley (HORVX) (100 g/ha), 20% in the test with barley (HORVX) (300 g/ha) and 100% with barley (HORVX) (900 g/ha). Also, the “Percent inhibition AEGCY” value came out at 0% in test [2] (30 g/ha), 20% in test [2] (100 g/ha), 20% in test [2] (300 g/ha) and 70% in test [2] (900 g/ha).
Regarding `CCN(CC)C(=O)n1cnc(S(=O)(=O)C(F)(F)Cl)n1` [Example 3], the “Percent inhibition LOLMG” value in the test on LOLMG (annual ryegrass) (30 g/ha) is listed as 40%; in the test with LOLMG (annual ryegrass) (100 g/ha), 100%; with LOLMG (annual ryegrass) (300 g/ha) it was 100%; with LOLMG (annual ryegrass) (900 g/ha), 100%. Moreover, the “Percent inhibition DATST” value in the test on DATST (jimsonweed) (30 g/ha) came to 0%; in the test on DATST (jimsonweed) (100 g/ha) it was 30%; in the test on DATST (jimsonweed) (300 g/ha) it was 70%; in the test with DATST (jimsonweed) (900 g/ha) it was 100%. For the same molecule, the “Percent inhibition GALAP” value in test [1] (30 g/ha), in test [1] (100 g/ha), in test [1] (300 g/ha) and in test [1] (900 g/ha) was 100% throughout. Also, the “Percent inhibition HORVX” value in the test on barley (HORVX) (30 g/ha) is given as 0%; with barley (HORVX) (100 g/ha), 0%; with barley (HORVX) (300 g/ha), 10%; in the test on barley (HORVX) (900 g/ha) it was 80%. Moreover, the “Percent inhibition AEGCY” value in test [2] (30 g/ha) turned out to be 0%; in test [2] (100 g/ha), 50%; in test [2] (300 g/ha) it was 40%; in test [2] (900 g/ha), 90%.
For the molecule `CCN(CC)C(=O)n1cnc(S(=O)(=O)C(F)(F)C(F)(F)Br)n1` [Example 4], the “Percent inhibition LOLMG” value in the test with LOLMG (annual ryegrass) (30 g/ha) was 80%; in the test with LOLMG (annual ryegrass) (100 g/ha) it was 100%; in the test on LOLMG (annual ryegrass) (300 g/ha), 100%; in the test on LOLMG (annual ryegrass) (900 g/ha), 100%. In addition, the “Percent inhibition DATST” value is 0% with DATST (jimsonweed) (30 g/ha), 0% in the test with DATST (jimsonweed) (100 g/ha), 40% in the test with DATST (jimsonweed) (300 g/ha) and 75% with DATST (jimsonweed) (900 g/ha). In addition, the “Percent inhibition GALAP” value amounted to 75% in test [1] (30 g/ha), 100% in test [1] (100 g/ha), 100% in test [1] (300 g/ha) and 100% in test [1] (900 g/ha). For the same molecule, the “Percent inhibition HORVX” value in the test with barley (HORVX) (30 g/ha) is listed as 0%; in the test on barley (HORVX) (100 g/ha), 0%; with barley (HORVX) (300 g/ha), 50%; with barley (HORVX) (900 g/ha), 90%. Besides, the “Percent inhibition AEGCY” value is on record as 0% in test [2] (30 g/ha), 30% in test [2] (100 g/ha), 50% in test [2] (300 g/ha) and 30% in test [2] (900 g/ha).
Turning to `CCN(CC)C(=O)n1cnc(S(=O)(=O)C(F)(F)C(=O)c2ccccc2)n1` [Example 6], the “PPI activity GR80, LOLMG” value in the test with LOLMG (annual ryegrass) (setting [3]) was found to be 300 g/ha. In the test on DATST (jimsonweed) (pre-plant incorporated, GR80 = lowest tested rate with 80% or greater inhibition, approx. 14 days after treating, 30/21° C.), the “PPI activity (GR80) DATST” value came out at 300 g/ha. Also, in test [1] (setting [3]), the “PPI activity GR80, GALAP” value came out at 100 g/ha. In addition, the “PPI activity GR80, AEGCY” value in test [2] (setting [3]) is “[empty]”.
